≈ marks a conversion by molar mass, not a printed value.
Experiments:
Pseudomonas aeruginosa [1] = assay: Antibacterial activity against Pseudomonas aeruginosa ATCC 27853 assessed as inhibition of biofilm formation after 20 hrs by crystal-violet staining method; type: functional, organism-based
Pseudomonas aeruginosa [2] = assay: Antibacterial activity against Pseudomonas aeruginosa ATCC 27853 assessed as effect on planktonic growth at 5.5 ug/ml after 20 hrs relative to control; type: functional
Streptococcus mutans [3] = assay: Antibacterial activity against Streptococcus mutans ATCC 25175 assessed as effect on planktonic growth at 0.68 ug/ml after 20 hrs relative to control; type: functional
Staphylococcus aureus [4] = assay: Antibacterial activity against Staphylococcus aureus ATCC 25923 assessed as effect on planktonic growth at 43.8 ug/ml after 20 hrs relative to control; type: functional
Pseudomonas aeruginosa [5] = assay: Antibacterial activity against Pseudomonas aeruginosa ATCC 27853 assessed as effect on planktonic growth at 10.9 ug/ml after 20 hrs relative to control; type: functional
Streptococcus mutans [6] = assay: Antibacterial activity against Streptococcus mutans ATCC 25175 assessed as effect on planktonic growth at 10.9 ug/ml after 20 hrs relative to control; type: functional
Pseudomonas aeruginosa [7] = assay: Antibacterial activity against Pseudomonas aeruginosa ATCC 27853 assessed as effect on planktonic growth at 43.8 ug/ml after 20 hrs relative to control; type: functional
Staphylococcus aureus [8] = assay: Antibacterial activity against Staphylococcus aureus ATCC 25923 assessed as effect on planktonic growth at 0.17 ug/ml after 20 hrs relative to control; type: functional
Staphylococcus aureus [9] = assay: Antibacterial activity against Staphylococcus aureus ATCC 25923 assessed as effect on planktonic growth at 10.9 ug/ml after 20 hrs relative to control; type: functional
Pseudomonas aeruginosa [10] = assay: Antibacterial activity against Pseudomonas aeruginosa ATCC 27853 assessed as effect on planktonic growth at 87.5 ug/ml after 20 hrs relative to control; type: functional
Streptococcus mutans [11] = assay: Antibacterial activity against Streptococcus mutans ATCC 25175 assessed as effect on planktonic growth at 0.34 ug/ml after 20 hrs relative to control; type: functional
Staphylococcus aureus [12] = assay: Antibacterial activity against Staphylococcus aureus ATCC 25923 assessed as effect on planktonic growth at 5.5 ug/ml after 20 hrs relative to control; type: functional
Pseudomonas aeruginosa [13] = assay: Antibacterial activity against Pseudomonas aeruginosa ATCC 27853 assessed as effect on planktonic growth at 0.34 ug/ml after 20 hrs relative to control; type: functional
Pseudomonas aeruginosa [14] = assay: Antibacterial activity against Pseudomonas aeruginosa ATCC 27853 assessed as effect on planktonic growth at 1.37 ug/ml after 20 hrs relative to control; type: functional
Streptococcus mutans [15] = assay: Antibacterial activity against Streptococcus mutans ATCC 25175 assessed as effect on planktonic growth at 1.37 ug/ml after 20 hrs relative to control; type: functional
Pseudomonas aeruginosa [16] = assay: Antibacterial activity against Pseudomonas aeruginosa ATCC 27853 assessed as effect on planktonic growth at 0.68 ug/ml after 20 hrs relative to control; type: functional
[17] = test system: Staphylococcus epidermidis; assay: Antibacterial activity against Staphylococcus epidermidis ATCC 35547 assessed as effect on planktonic growth at 5.5 ug/ml after 20 hrs relative to control; type: functional
Pseudomonas aeruginosa [18] = assay: Antibacterial activity against Pseudomonas aeruginosa ATCC 27853 assessed as effect on planktonic growth at 21.9 ug/ml after 20 hrs relative to control; type: functional
Staphylococcus aureus [19] = assay: Antibacterial activity against Staphylococcus aureus ATCC 25923 assessed as effect on planktonic growth at 2.73 ug/ml after 20 hrs relative to control; type: functional
[20] = test system: Staphylococcus epidermidis; assay: Antibacterial activity against Staphylococcus epidermidis ATCC 35547 assessed as effect on planktonic growth at 21.9 ug/ml after 20 hrs relative to control; type: functional
Pseudomonas aeruginosa [21] = assay: Antibacterial activity against Pseudomonas aeruginosa ATCC 27853 assessed as effect on planktonic growth at 0.17 ug/ml after 20 hrs relative to control; type: functional
Staphylococcus aureus [22] = assay: Antibacterial activity against Staphylococcus aureus ATCC 25923 assessed as effect on planktonic growth at 0.34 ug/ml after 20 hrs relative to control; type: functional
[23] = test system: Staphylococcus epidermidis; assay: Antibacterial activity against Staphylococcus epidermidis ATCC 35547 assessed as effect on planktonic growth at 43.8 ug/ml after 20 hrs relative to control; type: functional
Staphylococcus aureus [24] = assay: Antibacterial activity against Staphylococcus aureus ATCC 25923 assessed as effect on planktonic growth at 1.37 ug/ml after 20 hrs relative to control; type: functional
[25] = test system: Staphylococcus epidermidis; assay: Antibacterial activity against Staphylococcus epidermidis ATCC 35547 assessed as effect on planktonic growth at 0.34 ug/ml after 20 hrs relative to control; type: functional
Streptococcus mutans [26] = assay: Antibacterial activity against Streptococcus mutans ATCC 25175 assessed as effect on planktonic growth at 2.73 ug/ml after 20 hrs relative to control; type: functional
[27] = test system: Staphylococcus epidermidis; assay: Antibacterial activity against Staphylococcus epidermidis ATCC 35547 assessed as effect on planktonic growth at 2.73 ug/ml after 20 hrs relative to control; type: functional
[28] = test system: Staphylococcus epidermidis; assay: Antibacterial activity against Staphylococcus epidermidis ATCC 35547 assessed as effect on planktonic growth at 1.37 ug/ml after 20 hrs relative to control; type: functional
[29] = test system: Staphylococcus epidermidis; assay: Antibacterial activity against Staphylococcus epidermidis ATCC 35547 assessed as effect on planktonic growth at 0.17 ug/ml after 20 hrs relative to control; type: functional
Pseudomonas aeruginosa [30] = assay: Antibacterial activity against Pseudomonas aeruginosa ATCC 27853 assessed as effect on planktonic growth at 2.73 ug/ml after 20 hrs relative to control; type: functional
[31] = test system: Staphylococcus epidermidis; assay: Antibacterial activity against Staphylococcus epidermidis ATCC 35547 assessed as effect on planktonic growth at 10.9 ug/ml after 20 hrs relative to control; type: functional
[32] = test system: Staphylococcus epidermidis; assay: Antibacterial activity against Staphylococcus epidermidis ATCC 35547 assessed as effect on planktonic growth at 87.5 ug/ml after 20 hrs relative to control; type: functional
Staphylococcus aureus [33] = assay: Antibacterial activity against Staphylococcus aureus ATCC 25923 assessed as effect on planktonic growth at 87.5 ug/ml after 20 hrs relative to control; type: functional
Streptococcus mutans [34] = assay: Antibacterial activity against Streptococcus mutans ATCC 25175 assessed as effect on planktonic growth at 5.5 ug/ml after 20 hrs relative to control; type: functional
Streptococcus mutans [35] = assay: Antibacterial activity against Streptococcus mutans ATCC 25175 assessed as effect on planktonic growth at 0.17 ug/ml after 20 hrs relative to control; type: functional
Streptococcus mutans [36] = assay: Antibacterial activity against Streptococcus mutans ATCC 25175 assessed as effect on planktonic growth at 43.8 ug/ml after 20 hrs relative to control; type: functional
[37] = test system: Staphylococcus epidermidis; assay: Antibacterial activity against Staphylococcus epidermidis ATCC 35547 assessed as effect on planktonic growth at 0.68 ug/ml after 20 hrs relative to control; type: functional
Staphylococcus aureus [38] = assay: Antibacterial activity against Staphylococcus aureus ATCC 25923 assessed as effect on planktonic growth at 0.68 ug/ml after 20 hrs relative to control; type: functional
Staphylococcus aureus [39] = assay: Antibacterial activity against Staphylococcus aureus ATCC 25923 assessed as effect on planktonic growth at 21.9 ug/ml after 20 hrs relative to control; type: functional
Streptococcus mutans [40] = assay: Antibacterial activity against Streptococcus mutans ATCC 25175 assessed as effect on planktonic growth at 21.9 ug/ml after 20 hrs relative to control; type: functional
Streptococcus mutans [41] = assay: Antibacterial activity against Streptococcus mutans ATCC 25175 assessed as effect on planktonic growth at 87.5 ug/ml after 20 hrs relative to control; type: functional
[42] = test system: Staphylococcus epidermidis; assay: Antibacterial activity against Staphylococcus epidermidis ATCC 35547 assessed as inhibition of biofilm formation after 20 hrs by crystal-violet staining method; type: functional, organism-based; settings: for IC50: ATCC 35547, 20 h

COc1ccc(Br)cc1C1=C(Br)C(=O)N(CC(C)C)/C1=C\c1ccc(Br)cc1
inhibition (Pseudomonas aeruginosa [1]): Dose-dependent effect | IC50 (Pseudomonas aeruginosa [1]; ATCC 27853, 20 h): > 87.5 µg/mL | Activity (Pseudomonas aeruginosa [2]): 0.6% | Activity (Streptococcus mutans [3]): 5.8% | Activity (Staphylococcus aureus [4]): 5.5% | Activity (Pseudomonas aeruginosa [5]): -2.6% | Activity (Streptococcus mutans [6]): -5% | Activity (Pseudomonas aeruginosa [7]): 3.4% | Activity (Staphylococcus aureus [8]): -3.9% | Activity (Staphylococcus aureus [9]): 1% | Activity (Pseudomonas aeruginosa [10]): 12.6% | Activity (Streptococcus mutans [11]): -0.3% | Activity (Staphylococcus aureus [12]): -2.1% | Activity (Pseudomonas aeruginosa [13]): 0.3% | Activity (Pseudomonas aeruginosa [14]): 1% | Activity (Streptococcus mutans [15]): 8.3% | Activity (Pseudomonas aeruginosa [16]): -0.2% | Activity [17]: 0.9% | Activity (Pseudomonas aeruginosa [18]): -1.3% | Activity (Staphylococcus aureus [19]): -2.4% | Activity [20]: 32.6% | Activity (Pseudomonas aeruginosa [21]): 4.1% | Activity (Staphylococcus aureus [22]): 0.3% | Activity [23]: 78.7% | Activity (Staphylococcus aureus [24]): -0.5% | Activity [25]: 14.1% | Activity (Streptococcus mutans [26]): -5.3% | Activity [27]: 11.2% | Activity [28]: 5.7% | Activity [29]: 3.3% | Activity (Pseudomonas aeruginosa [30]): 0.8% | Activity [31]: 12.3% | Activity [32]: 88.4% | Activity (Staphylococcus aureus [33]): 6% | Activity (Streptococcus mutans [34]): -3.3% | Activity (Streptococcus mutans [35]): 6% | Activity (Streptococcus mutans [36]): -31.4% | Activity [37]: 10% | Activity (Staphylococcus aureus [38]): -0.5% | Activity (Staphylococcus aureus [39]): 0.8% | Activity (Streptococcus mutans [40]): -14.6% | Activity (Streptococcus mutans [41]): -15.8% | inhibition [42]: Dose-dependent effect | IC50 [42]: 67.5 µg/mL (≈ 118 µM)

COc1ccc(Br)cc1C1=C(Br)C(=O)N(CC(C)C)C1(O)Cc1ccc(Br)cc1 (stereo not given)
inhibition (Pseudomonas aeruginosa [1]): Dose-dependent effect | Activity (Pseudomonas aeruginosa [2]): 58.3% | Activity (Streptococcus mutans [3]): -8% | Activity (Staphylococcus aureus [4]): -13.7% | Activity (Pseudomonas aeruginosa [5]): 64.1% | Activity (Streptococcus mutans [6]): -8% | Activity (Pseudomonas aeruginosa [7]): 63.9% | Activity (Staphylococcus aureus [8]): 1.1% | Activity (Staphylococcus aureus [9]): -11.3% | Activity (Pseudomonas aeruginosa [10]): 39.4% | Activity (Streptococcus mutans [11]): -7% | Activity (Staphylococcus aureus [12]): -9% | Activity (Pseudomonas aeruginosa [13]): -5.7% | Activity (Pseudomonas aeruginosa [14]): -4.5% | Activity (Streptococcus mutans [15]): 4% | Activity (Pseudomonas aeruginosa [16]): -7% | Activity [17]: -2.4% | Activity (Pseudomonas aeruginosa [18]): 58.3% | Activity (Staphylococcus aureus [19]): -17.9% | Activity [20]: 55.8% | Activity (Pseudomonas aeruginosa [21]): -4% | Activity (Staphylococcus aureus [22]): -3.4% | Activity [23]: 43.6% | Activity (Staphylococcus aureus [24]): -14.8% | Activity [25]: 4.3% | Activity (Streptococcus mutans [26]): -6% | Activity [27]: 4.8% | Activity [28]: 8% | Activity [29]: 2.1% | Activity (Pseudomonas aeruginosa [30]): 0.8% | Activity [31]: 11.2% | Activity [32]: 29.8% | Activity (Staphylococcus aureus [33]): 7.4% | Activity (Streptococcus mutans [34]): -3% | Activity (Streptococcus mutans [35]): -13.2% | Activity (Streptococcus mutans [36]): -17.9% | Activity [37]: -5.4% | Activity (Staphylococcus aureus [38]): -10.8% | Activity (Staphylococcus aureus [39]): -15.6% | Activity (Streptococcus mutans [40]): -13.7% | Activity (Streptococcus mutans [41]): 0.2% | inhibition [42]: Dose-dependent effect | IC50 [42]: 13.3 µg/mL (≈ 22.6 µM)

COc1ccc(C)cc1C1=C(Br)C(=O)N(CC(C)C)C1(O)Cc1cccc(Cl)c1 (stereo not given)
inhibition (Pseudomonas aeruginosa [1]): Dose-dependent effect | Activity (Pseudomonas aeruginosa [2]): -8.6% | Activity (Streptococcus mutans [3]): 1.1% | Activity (Staphylococcus aureus [4]): -5% | Activity (Pseudomonas aeruginosa [5]): -9.6% | Activity (Streptococcus mutans [6]): -7.6% | Activity (Pseudomonas aeruginosa [7]): -10.6% | Activity (Staphylococcus aureus [8]): 6.7% | Activity (Staphylococcus aureus [9]): 4.3% | Activity (Pseudomonas aeruginosa [10]): -11.6% | Activity (Streptococcus mutans [11]): 2.4% | Activity (Staphylococcus aureus [12]): 5.4% | Activity (Pseudomonas aeruginosa [13]): -1.3% | Activity (Pseudomonas aeruginosa [14]): -3.4% | Activity (Streptococcus mutans [15]): -4.8% | Activity (Pseudomonas aeruginosa [16]): -2.6% | Activity [17]: 12% | Activity (Pseudomonas aeruginosa [18]): -7.9% | Activity (Staphylococcus aureus [19]): 12.8% | Activity [20]: -7.3% | Activity (Pseudomonas aeruginosa [21]): -1.6% | Activity (Staphylococcus aureus [22]): 11.4% | Activity [23]: -28.5% | Activity (Staphylococcus aureus [24]): 9.7% | Activity [25]: 2.4% | Activity (Streptococcus mutans [26]): -2.9% | Activity [27]: 1.9% | Activity [28]: 0.9% | Activity [29]: 3.5% | Activity (Pseudomonas aeruginosa [30]): -7% | Activity [31]: -17.2% | Activity [32]: -7.8% | Activity (Staphylococcus aureus [33]): -12.1% | Activity (Streptococcus mutans [34]): -11% | Activity (Streptococcus mutans [35]): 3% | Activity (Streptococcus mutans [36]): -21% | Activity [37]: 1.2% | Activity (Staphylococcus aureus [38]): 10.8% | Activity (Staphylococcus aureus [39]): 3.4% | Activity (Streptococcus mutans [40]): -12.5% | Activity (Streptococcus mutans [41]): -31.2% | inhibition [42]: Dose-dependent effect | IC50 [42]: > 87.5 µg/mL
